Measured values taken from patent US11185539B2 (priority 2017, dated 2021).

Tests used:
[1] = system: primary HCFs; assay: Cell death in HCFs, FACS after Annexin-7AAD-staining; type: cell-based, human; conditions: Lycorine 5 μM, Bufalin, Gitoxigenin, Anisomycin 1 μM, 24 h
Method: HCFs and HL-1 cells were treated with Bufalin, Gitoxigenin, Lycorine and Anisomycin for 24 h with the same concentrations as indicated in Example 1 and proliferation of HCFs and cardiomyocyte cell line HL-1 cells was measured by BrdU-ELISA, DMSO refers as a control (see FIG. 2B, 3B, 4B, 5B). The cell proliferation ELISA is a colorimetric alternative to quantitate cell proliferation based on the measurement of BrdU incorporation during DNA synthesis in proliferating cells. After its incorporation into DNA, BrdU is detected by immunoassay by using antibodies being highly specific for BrdU. First, HCFs and/or HL-1 cells are cultured together with various dilutions of test substances (e.g. mitogens, growth factors, cytokines and test compounds such as Bufalin, Gitoxigenin, Lycorine and Anisomycin as mentioned above etc.) in a 96-well in a final volume of 100 μl/well in a humified atmosphere of 37° C. Afterwards, 10 μl/well BrdU labeling solution is added to the cells being cultured in 100 μl/well (final concentration: 10 μM BrdU). Then, cells were re-incubated for additional 2 to 24 h at 37° C. Next, labeling solution is removed and 200 μl/well FixDenat is added to the cells and incubated for 30 min at 15 to 25° C. Then, 100 μl/well anti-BrdU-POD working solution is added and incubated for approximately 90 min, after FixDenat is removed. Next, antibody conjugate is removed and wells are washed with 200 μl-300 μl/well Washing solution (PBS, 1×). After the washing solution is removed, 100 μl/well Substrate solution is added and it is incubated again until color development is sufficient for photometric detection. Further, HCFs were treated with said compounds (Lycorine: 5 μM, Bufalin: 1 μM, Gitoxigenin: 1 μM and Anisomycin: 1 μM) for 24 h as indicated again and subjected to FACS analysis after Annexin-7AAD-staining (see FIG. 2C, 3C, 4C, 5C). After the treatment with said compounds, annexin-7AAD-staining starts with inducing apoptosis in HCFs by a desired method, known to the person skilled in the art, a negative control (w/o induction and staining) and a positive control (f. ex. 500 μM H2O2 or 3 μM Staurosporin) is also needed. Then, the medium with HCFs is transferred into a falcon, washed with PBS and trypsinized. Everything is centrifuged for 5 min at 300×g and then the supernatant is aspirated. The pellet is re-suspended in 200 μl Annexin Red/7AAD Working Solution (1:20, 5 μl Annexin Red/7AAD+195 μl 1× Assay Buffer) and transferred into an Easy Cap Eppendorf tube. After incubation of 15 min at 37° C., it is centrifuged at room temperature (RT) for 5 min at 300×g. […] Samples are now ready for acquisition on a flow cytometer (blue and red laser).

[2] = system: miR-671-5p; assay: miR-671-5p expression in HCFs, qRT-PCR; type: cell-based, human; conditions: Lycorine 5 μM, others 1 μM, 24 h, vs DMSO
[3] = system: Collagen1a1; assay: Collagen1a1 protein levels in HCFs, Western Blot; type: cell-based, human; conditions: Lycorine 5 μM, Bufalin, Gitoxigenin, Anisomycin 1 μM, 24 h, DMSO control
Method: Additionally, HCFs were treated with said compounds (Lycorine: 5 μM, Bufalin: 1 μM, Gitoxigenin: 1 μM and Anisomycin: 1 μM) for 24 h as indicated again, lysed and analyzed for extracellular matrix component Collagen1a1 protein levels in primary HCFs (normalized to GAPDH) by representative Western Blot, DMSO refers as a control (see FIG. 2D, 3D, 4D, 5D).

[4] = system: C57BL/6 mice with angiotensin II-induced diastolic heart failure; assay: Picrosirius-red collagen staining of heart sections, angiotensin II model (two weeks); type: in vivo; conditions: i.p. every other day, Bufalin 0.5, Lycorine 4.5, Anisomycin 10, Gitoxigenin 0.01 mg/kg, day 14
Method: Diastolic heart failure (HF) was induced in C57BL/6 mice via implantation of angiotensin II filled minipumps. Male C57BL/6 mice 8-10 weeks old were used in the present invention being based on a C57BL/6N-background (Charles River, Germany).
For implantation of angiotension II filled minipumps, Angiotensin-II is applied by osmotic minipumps for two weeks (Alzet® [Modell 1001]). The recommended dose amounts for 1.5 or 3.0 mg/kg/per day. The minipumps are filled under sterile conditions with Angiotensin-II or with isotonic saline solution functioning as a control substance. Implantation takes place under intraperitoneal injection anaesthesia. […] Mice are then fixed on a pre-heated operating table and are provided with Bepanthen eye salve against drying out of the conjunctives. The operating field is located in the right caudal third of the back. It is shaved and desinfected with Braunol, afterwards it is coated with a 0.5% Lidocain-solution. After a period of one hour implantation can be started. The skin is cut through vertical to the back line, preferably the length is one centimeter. A pocket from the cutting line to cranial is subcutaneously formed. Herein, the minipumps are injected. Afterwards, the skin is then closed with a 5-0 Prolene string with interrupted sutures. Then, the closed wound is coated again with Braunol. For preventing hypothermia mice wake up in their cages, which are placed up to one-third on a terrarium-warming mat with regulated temperatures of 37°. Surgery amounts for 5 minutes/per animal.
Next, the natural compounds (Bufalin, Gitoxigenin, Lycorine, and Anisomycin) were injected intraperitoneally every other day during two consecutive weeks starting two days after the operation (see FIG. 6). DMSO was also injected into C57BL/6 mice with induced cardiac remodeling as a control. Cardiac function was assessed echocardiographically and fibrosis-development via collagen staining with picosirius-red in histological sections of the hearts (Example 4).
Further, fourteen days after the operation, histological sections of the hearts were stained for collagen using picrosirius-red (n=3-5 per group) after treatment with said compounds (Bufalin: 0.5 mg/kg, Lycorine 4.5 mg/kg, Anisomycin: 10 mg/kg and Gitoxigenin: 0.01 mg/kg).

[5] = system: kidney and liver; assay: Kidney and liver histology (HE, PAS), angiotensin II model, fourteen days; type: in vivo, mice; conditions: Bufalin 0.5, Lycorine 4.5 mg/kg; fourteen days after the operation
Method: Again, HF was induced in mice (Example 3) and Bufalin (0.5 mg/kg) as well as Lycorine (4.5 mg/kg) were injected as indicated in Example 3. Fourteen days after the operation, kidneys and livers were subjected to histological assessment via Hematoxylin and Eosin (HE) and Periodic acid-Schiff (PAS) stain (n=2-4 per group) (see FIGS. 28A and B).

Structure (SMILES) | cell death in primary HCFs (Annexin-7AAD-staining) [1] | expression levels of miR-671-5p (normalized to RNU48) [2] | expression levels of Collagen1a1 (normalized to GAPDH) [3] | collagen deposition in heart sections (picrosirius-stained areas) [4] | kidney and liver morphology (HE, PAS) [5]
COc1ccc(C[C@H]2NC[C@H](O)[C@H]2OC(C)=O)cc1 [Anisomycin] | does not induce cell death | decreased | decreases expression levels | prominent reduction of collagen deposition | –
C[C@]12CC[C@H](O)C[C@H]1CC[C@@H]1[C@@H]2CC[C@]2(C)[C@@H](c3ccc(=O)oc3)CC[C@]12O [Bufalin] | does not induce cell death | decreased | decreases expression levels | prominent reduction of collagen deposition | does not induce necrosis, inflammation or any morphological changes
C[C@]12CC[C@H](O)C[C@H]1CC[C@@H]1[C@@H]2CC[C@]2(C)[C@@H](C3=CC(=O)OC3)[C@@H](O)C[C@]12O [Gitoxigenin] | does not induce cell death | decreased | decreases expression levels | prominent reduction of collagen deposition | –
O[C@H]1[C@H]2c3cc4c(cc3CN3CCC(=C[C@@H]1O)[C@H]23)OCO4 [Lycorine] | does not induce cell death | decreased | decreases expression levels | prominent reduction of collagen deposition | does not induce necrosis, inflammation or any morphological changes
